# Measured values: patent US20240262832A1, “SMALL MOLECULE MODULATORS OF GLUCOCEREBROSIDASE ACTIVITY AND USES THEREOF” (Vanqua Bio, Inc., priority 2021, published 2024)
# Molecular target: T1, GCase (Homo sapiens, UniProt P04062)
# T1 construct: endogenous in cells; host or cells: HeLa cells
# T1 sequence (P04062 40-536): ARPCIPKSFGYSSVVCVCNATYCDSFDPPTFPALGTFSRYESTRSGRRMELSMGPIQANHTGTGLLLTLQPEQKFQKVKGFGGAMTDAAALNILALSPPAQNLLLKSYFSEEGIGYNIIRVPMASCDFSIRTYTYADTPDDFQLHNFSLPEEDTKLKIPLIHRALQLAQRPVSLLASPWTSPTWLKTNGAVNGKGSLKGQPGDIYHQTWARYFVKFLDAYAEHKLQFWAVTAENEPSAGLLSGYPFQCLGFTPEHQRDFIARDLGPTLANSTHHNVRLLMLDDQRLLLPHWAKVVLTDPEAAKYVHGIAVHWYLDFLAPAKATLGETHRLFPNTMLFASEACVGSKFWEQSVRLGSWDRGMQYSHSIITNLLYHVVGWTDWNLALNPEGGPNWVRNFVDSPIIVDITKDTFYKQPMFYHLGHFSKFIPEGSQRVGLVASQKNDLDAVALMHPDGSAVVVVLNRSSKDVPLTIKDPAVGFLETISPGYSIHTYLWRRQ
# Assay: activation of GCase in a live cell PFB assay in HELA cells
# Assay type: cell-based
row,Structure (SMILES),EC50 [µM]
1,"CC1CCN(c2cnc3cnn(CC(F)F)c3n2)CC1COc1cccnc1C(F)(F)F (centres unmarked) [Compound 48, 1-(2,2-Difluoroethyl)-6-(4-methyl-3-(((2-(trifluoromethyl)pyridin-3-yl)oxy)methyl)piperidin-1-yl)-1H-pyrazolo[3,4-b]pyrazine]",< 10
2,"O=C(Cc1csc(-c2ccccc2)n1)N1CCC(Oc2cccnc2C(F)(F)F)CC1 [Compound 400, 2-(2-Phenyl-1,3-thiazol-4-yl)-1-(4-{[2-(trifluoromethyl)pyridin-3-yl]oxy}piperidin-1-yl)ethan-1-one]",10 to 50
3,"FC(F)Cn1ncc2ncc(N3CCC(COc4ccncc4C(F)(F)F)CC3)nc21 [Compound 308, 1-(2,2-Difluoroethyl)-6-(4-(((3-(trifluoromethyl)pyridin-4-yl)oxy)methyl)piperidin-1-yl)-1H-pyrazolo[3,4-b]pyrazine]",< 10
4,Fc1cc(F)cc(OC[C@@H]2[C@H]3CN(c4cnc5cnn(C6COC6)c5n4)C[C@@H]23)c1 [Compound 124],10 to 50
5,"FC(F)Cn1ncc2ncc(N3C[C@@H]4[C@@H](COc5ncccc5C(F)(F)F)[C@@H]4C3)nc21 [Compound 89, (1R,5S,6S)-3-[1-(2,2-difluoroethyl)-1H-pyrazolo[3,4-b]pyrazin-6-yl]-6-({[3-(trifluoromethyl)pyridin-2-yl]oxy}methyl)-3-azabicyclo[3.1.0]hexane]",10 to 50
6,"O=C(c1ccc2cc[nH]c2c1)N1CCC(Oc2ccc(C(F)(F)F)nc2)CC1 [Compound 314, (1H-Indol-6-yl)(4-((6-(trifluoromethyl)pyridin-3-yl)oxy)piperidin-1-yl)methanone]",50 to 100
7,"Cc1cccc2cc(C(=O)N3CCC(Oc4ccccc4)CC3)oc12 [Compound 409, 1-(7-Methyl-1-benzofuran-2-carbonyl)-4-phenoxypiperidine]",10 to 50
8,"O=C(c1ccc2cc[nH]c2c1)N1C[C@@H]2[C@@H](COc3cccnc3C(F)(F)F)[C@@H]2C1 [Compound 109, 6-[(1R,5S,6R)-6-({[2-(Trifluoromethyl)pyridin-3-yl]oxy}methyl)-3-azabicyclo[3.1.0]hexane-3-carbonyl]-1H-indole]",10 to 50
9,"C[C@H]1CCN(c2cnc3cnn(CC(F)F)c3n2)C[C@H]1COc1cccnc1C(F)(F)F [Compound 48b, 1-(2,2-difluoroethyl)-6-((3S,4S)-4-methyl-3-(((2-(trifluoromethyl)pyridin-3-yl)oxy)methyl)piperidin-1-yl)-1H-pyrazolo[3,4-b]pyrazine]",> 100
10,"COCC1CCC(COc2cccnc2C(F)(F)F)CN1c1cnc2cnn(CC(F)F)c2n1 (centres unmarked) [Compound 295, 1-(2,2-Difluoroethyl)-6-(2-(methoxymethyl)-5-(((2-(trifluoromethyl)pyridin-3-yl)oxy)methyl)piperidin-1-yl)-1H-pyrazolo[3,4-b]pyrazine]",< 10
11,Cc1cccc(-c2ccccc2C(=O)N2CCCC(COc3ccccc3)C2)c1 (centres unmarked) [Compound 187],10 to 50
12,C=CCn1ncc(CN2CCC(COc3ccc(OC)cc3)CC2)c1C [Compound 469],> 100
13,"c1ccc(OCC2CCN(c3cnc4ccccc4n3)CC2)cc1 [Compound 418, 2-[4-(Phenoxymethyl)piperidin-1-yl]quinoxaline]",10 to 50
14,O=C(c1ccc(N2CCCCCC2)cc1)N1CCCC(COc2ccccc2)C1 (centres unmarked) [Compound 156],10 to 50
15,"CC1CC(COc2cccnc2C(F)(F)F)CN(c2cnc3cnn(CC(F)(F)F)c3n2)C1 (centres unmarked) [Compound 127, 6-(3-Methyl-5-(((2-(trifluoromethyl)pyridin-3-yl)oxy)methyl)piperidin-1-yl)-1-(2,2,2-trifluoroethyl)-1H-pyrazolo[3,4-b]pyrazine]",< 10
16,"Cc1ccccc1OCC1CCCN(c2cnc3cnn(-c4nncs4)c3n2)C1 (centres unmarked) [Compound 23, 2-(6-(3-((o-Tolyloxy)methyl)piperidin-1-yl)-1H-pyrazolo[3,4-b]pyrazin-1-yl)-1,3,4-thiadiazole]",10 to 50
17,O=C(c1cn(CC2CCCCC2)nn1)N1CCC(OCc2ccccc2)CC1 [Compound 419],> 100
18,CCCCCCC(C)C(=O)N1CCCC(COc2ccccc2)C1 (centres unmarked) [Compound 132],< 10

# Second part, the compound after the results:
row,EC50 [µM],Structure (SMILES)
1,10 to 50,COC(C(=O)N1CCCC(COc2ccccc2)C1)c1ccc(Cl)cc1 (centres unmarked) [Compound 153]
2,10 to 50,"O=C(c1ccc2cc[nH]c2c1)N1CCC(COc2ccccc2)CC1 [Compound 416, 6-[4-(Phenoxymethyl)piperidine-1-carbonyl]-1H-indole]"
3,< 10,C[C@H](Oc1ccccc1C(F)(F)F)[C@@H]1CCCN(c2cnc3cnn(CC(F)F)c3n2)C1 (racemic) [Compound 5c]
4,10 to 50,"O=C(Cc1csc(-c2ccccc2)n1)N1CCC(OCCc2ccccc2)CC1 [Compound 336, 2-(2-Phenyl-1,3-thiazol-4-yl)-1-[4-(2-phenylethoxy)piperidin-1-yl]ethan-1-one]"
5,10 to 50,O=C(C(c1ccccc1)c1ccccc1)N1CCC(Oc2ccc(C(F)(F)F)cn2)CC1 [Compound 387]
6,> 100,COc1ccc(OCC2CCN(C(=O)Cn3cnnn3)CC2)cc1 [Compound 484]
7,> 100,"Cn1c(-c2ccccc2)nc2nc(C(=O)N3C[C@@H]4[C@@H](COc5cccnc5C(F)(F)F)[C@@H]4C3)cnc21 [Compound 105, (1-methyl-2-phenyl-1H-imidazo[4,5-b]pyrazin-5-yl)((1R,5S,6r)-6-(((2-(trifluoromethyl)pyridin-3-yl)oxy)methyl)-3-azabicyclo[3.1.0]hexan-3-yl)methanone]"
8,10 to 50,"Cc1cnc2c(n1)c(C(=O)N1CCCC(COc3ccccc3C)C1)c(-c1ccccc1)n2C (centres unmarked) [Compound 263, (2,5-dimethyl-6-phenyl-5H-pyrrolo[2,3-b]pyrazin-7-yl)(3-((o-tolyloxy)methyl)piperidin-1-yl)methanone]"
9,10 to 50,"Fc1cc(F)cc(OCC2CCCN(c3cnc4cnn(C5COC5)c4n3)C2)c1 (centres unmarked) [Compound 88, 6-(3-((3,5-Difluorophenoxy)methyl)piperidin-1-yl)-1-(oxetan-3-yl)-1H-pyrazolo[3,4-b]pyrazine]"
10,< 10,"CC(C)c1cc(C(=O)N2CC(COc3cccnc3C(F)(F)F)CCC2C)[nH]n1 (centres unmarked) [Compound 231, (3-isopropyl-1H-pyrazol-5-yl)(2-methyl-5-(((2-(trifluoromethyl)pyridin-3-yl)oxy)methyl)piperidin-1-yl)methanone]"
11,10 to 50,COc1ccc(OCC2CCN(Cc3ccc(CO)o3)CC2)cc1 [Compound 448]
12,10 to 50,"O=C(c1ccc2ccn(C3COC3)c2c1)N1CCC[C@H](CCc2ccccc2C(F)(F)F)C1 [Compound 19, 1-(oxetan-3-yl)-6-[(3S)-3-{2-[2-(trifluoromethyl)phenyl]ethyl}piperidine-1-carbonyl]-1H-indole]"
13,10 to 50,COc1ccc(C(F)(F)C(=O)N2CCCC(COc3ccccc3)C2)cc1 (centres unmarked) [Compound 152]
14,10 to 50,"FC(F)Cn1ncc2ncc(N3CCC(F)(F)C(COc4cccc(C(F)(F)F)n4)C3)nc21 (centres unmarked) [Compound 42, 2-({1-[1-(2,2-Difluoroethyl)-1H-pyrazolo[3,4-b]pyrazin-6-yl]-4,4-difluoropiperidin-3-yl}methoxy)-6-(trifluoromethyl)pyridine]"
15,10 to 50,COc1ccc(OCCCC(=O)N2CCCC(COc3ccccc3)C2)cc1 (centres unmarked) [Compound 12]
16,10 to 50,"O=C(c1cnn(-c2ccccc2)n1)N1CCC(Oc2ccccc2)CC1 [Compound 410, 4-Phenoxy-1-(2-phenyl-2H-1,2,3-triazole-4-carbonyl)piperidine]"
17,> 100,CCc1nc(CN2CCC(COc3ccc(OC)cc3)CC2)no1 [Compound 470]
18,> 100,"O=c1[nH]c(N2CCC[C@H](COc3cccnc3C(F)(F)F)C2)cc2c1cnn2CC(F)F [Compound 306, (S)-1-(2,2-difluoroethyl)-6-(3-(((2-(trifluoromethyl)pyridin-3-yl)oxy)methyl)piperidin-1-yl)-1,5-dihydro-4H-pyrazolo[4,3-c]pyridin-4-one]"
19,10 to 50,O=C(c1cc2cccc(Cl)c2s1)N1CCCC(COc2ccccc2)C1 (centres unmarked) [Compound 218]
20,10 to 50,"Cn1c(-c2ccc(F)cc2)nc2ncc(C(=O)N3CCCC(COc4cccnc4C(F)(F)F)C3)nc21 (centres unmarked) [Compound 96, (2-(4-Fluorophenyl)-1-methyl-1H-imidazo[4,5-b]pyrazin-6-yl)(3-(((2-(trifluoromethyl)pyridin-3-yl)oxy)methyl)piperidin-1-yl)methanone]"
21,< 10,"CC1CC(COc2cccnc2C(F)(F)F)CN(c2cnc3cnn(CC(F)F)c3n2)C1 (single isomer, unassigned) [Compound 47b]"
22,50 to 100,COc1ccc(OCC2CCN(C(=O)CC3CCOC3)CC2)cc1 (centres unmarked) [Compound 472]
23,< 10,COc1ccc(OCC2CCN(c3nccc(N4CCCC(O)C4)n3)CC2)cc1 (centres unmarked) [Compound 424]
24,10 to 50,Cn1c(-c2ccc(F)cc2)nc2ncc(C(=O)N3C[C@@H]4[C@@H](COc5cccnc5C(F)(F)F)[C@@H]4C3)nc21 [Compound 224]
25,50 to 100,CCc1nc(CNC(=O)N2CCC(COc3ccc(OC)cc3)CC2)no1 [Compound 460]
26,< 10,"C[C@H]1C[C@@H](COc2cccnc2C(F)(F)F)CN(c2cnc3cnn(CC(F)F)c3n2)C1 [Compound 93, 1-(2,2-Difluoroethyl)-6-((3S,5R)-3-methyl-5-(((2-(trifluoromethyl)pyridin-3-yl)oxy)methyl)piperidin-1-yl)-1H-pyrazolo[3,4-b]pyrazine]"
